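Cells were grown in 96-well plates and exposed to each compound for 48 hours at five concentrations; endpoints were interpolated linearly between bracketing concentrations, or set to the highest concentration if not reached. Here, GI50 denotes the concentration required for 50% inhibition of growth. The concentration for full growth arrest is given as TGI.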
Key:
Assay in all cases: inhibition of tumour cell growth, NCI panel, 48 h
MCF7 breast = tested on: MCF7 breast
HL-60(TB) leukemia = tested on: HL-60(TB) leukemia
MALME-3M melanoma = tested on: MALME-3M melanoma
TK-10 renal = tested on: TK-10 renal
SK-MEL-2 melanoma = tested on: SK-MEL-2 melanoma
HS 578T breast = tested on: HS 578T breast
OVCAR-8 ovarian = tested on: OVCAR-8 ovarian
HT29 colon = tested on: HT29 colon
HCC-2998 colon = tested on: HCC-2998 colon
RXF 393 renal = tested on: RXF 393 renal
HCT-15 colon = tested on: HCT-15 colon
K-562 leukemia = tested on: K-562 leukemia
CAKI-1 renal = tested on: CAKI-1 renal
ACHN renal = tested on: ACHN renal
OVCAR-3 ovarian = tested on: OVCAR-3 ovarian
MDA-MB-435 = tested on: MDA-MB-435
IGROV1 ovarian = tested on: IGROV1 ovarian
A549 NSCLC = tested on: A549 NSCLC
HOP-62 NSCLC = tested on: HOP-62 NSCLC
DU-145 prostate = tested on: DU-145 prostate
PC-3 prostate = tested on: PC-3 prostate
SW-620 colon = tested on: SW-620 colon
M14 melanoma = tested on: M14 melanoma
SF-539 CNS = tested on: SF-539 CNS
HCT-116 colon = tested on: HCT-116 colon
CCRF-CEM leukemia = tested on: CCRF-CEM leukemia
HOP-92 NSCLC = tested on: HOP-92 NSCLC
OVCAR-4 ovarian = tested on: OVCAR-4 ovarian
NCI/ADR-RES ovarian = tested on: NCI/ADR-RES ovarian
SK-OV-3 ovarian = tested on: SK-OV-3 ovarian
NCI-H23 lung = tested on: NCI-H23 lung
UACC-257 melanoma = tested on: UACC-257 melanoma
RPMI-8226 leukemia = tested on: RPMI-8226 leukemia
SK-MEL-5 melanoma = tested on: SK-MEL-5 melanoma
NCI-H226 lung = tested on: NCI-H226 lung
A498 renal = tested on: A498 renal
MDA-MB-231 breast = tested on: MDA-MB-231 breast
U251 CNS = tested on: U251 CNS
COLO 205 colon = tested on: COLO 205 colon
SF-268 CNS = tested on: SF-268 CNS
KM12 colon = tested on: KM12 colon
BT-549 breast = tested on: BT-549 breast
T-47D breast = tested on: T-47D breast
OVCAR-5 ovarian = tested on: OVCAR-5 ovarian
SF-295 CNS = tested on: SF-295 CNS
SNB-75 CNS = tested on: SNB-75 CNS
SN12C renal = tested on: SN12C renal
SK-MEL-28 melanoma = tested on: SK-MEL-28 melanoma
786-0 renal = tested on: 786-0 renal
UACC-62 melanoma = tested on: UACC-62 melanoma
UO-31 renal = tested on: UO-31 renal
SNB-19 CNS = tested on: SNB-19 CNS
NCI-H460 lung = tested on: NCI-H460 lung
EKVX NSCLC = tested on: EKVX NSCLC
MOLT-4 leukemia = tested on: MOLT-4 leukemia
SR leukemia = tested on: SR leukemia
LOX IMVI melanoma = tested on: LOX IMVI melanoma

CCOC(=O)c1c(NCC(=O)Nc2ccc(Br)cc2)sc2c1CCCC2
GI50 (MCF7 breast): 1.48 µM
TGI (MCF7 breast): 3.51 µM
GI50 (HL-60(TB) leukemia): 1.57 µM
TGI (HL-60(TB) leukemia): 4.37 µM
GI50 (MALME-3M melanoma): 1.77 µM
TGI (MALME-3M melanoma): 3.81 µM
GI50 (TK-10 renal): 1.74 µM
TGI (TK-10 renal): 3.46 µM
GI50 (SK-MEL-2 melanoma): 1.84 µM
TGI (SK-MEL-2 melanoma): 5.49 µM
GI50 (HS 578T breast): 2.89 µM
TGI (HS 578T breast): 32.3 µM
GI50 (OVCAR-8 ovarian): 4 µM
TGI (OVCAR-8 ovarian): > 100 µM
GI50 (HT29 colon): 1.91 µM
TGI (HT29 colon): 3.98 µM
GI50 (HCC-2998 colon): 1.82 µM
TGI (HCC-2998 colon): 3.36 µM
GI50 (RXF 393 renal): 1.34 µM
TGI (RXF 393 renal): 2.76 µM
GI50 (HCT-15 colon): 1.38 µM
TGI (HCT-15 colon): 3.47 µM
GI50 (K-562 leukemia): 1.66 µM
TGI (K-562 leukemia): 7.09 µM
GI50 (CAKI-1 renal): 2.06 µM
TGI (CAKI-1 renal): 7.46 µM
GI50 (ACHN renal): 1.74 µM
TGI (ACHN renal): 3.29 µM
GI50 (OVCAR-3 ovarian): 1.61 µM
TGI (OVCAR-3 ovarian): 3.12 µM
GI50 (MDA-MB-435): 1.9 µM
TGI (MDA-MB-435): 5.58 µM
GI50 (IGROV1 ovarian): 2.13 µM
TGI (IGROV1 ovarian): 12.1 µM
GI50 (A549 NSCLC): 2.78 µM
TGI (A549 NSCLC): 8.46 µM
GI50 (HOP-62 NSCLC): 2.32 µM
TGI (HOP-62 NSCLC): 5.71 µM
GI50 (DU-145 prostate): 1.68 µM
TGI (DU-145 prostate): 3.28 µM
GI50 (PC-3 prostate): 2.46 µM
TGI (PC-3 prostate): 9.71 µM
GI50 (SW-620 colon): 2.28 µM
TGI (SW-620 colon): 6.1 µM
GI50 (M14 melanoma): 1.9 µM
TGI (M14 melanoma): 4.9 µM
GI50 (SF-539 CNS): 1.73 µM
TGI (SF-539 CNS): 3.18 µM
GI50 (HCT-116 colon): 1.63 µM
TGI (HCT-116 colon): 3.81 µM
GI50 (CCRF-CEM leukemia): 0.801 µM
TGI (CCRF-CEM leukemia): 6.72 µM
GI50 (HOP-92 NSCLC): 1.42 µM
TGI (HOP-92 NSCLC): 3.84 µM
GI50 (OVCAR-4 ovarian): 1.74 µM
TGI (OVCAR-4 ovarian): 4.77 µM
GI50 (NCI/ADR-RES ovarian): 2.6 µM
TGI (NCI/ADR-RES ovarian): 8.51 µM
GI50 (SK-OV-3 ovarian): 3.49 µM
TGI (SK-OV-3 ovarian): 10.9 µM
GI50 (NCI-H23 lung): 1.81 µM
TGI (NCI-H23 lung): 4.6 µM
GI50 (UACC-257 melanoma): 2.8 µM
TGI (UACC-257 melanoma): 8.2 µM
GI50 (RPMI-8226 leukemia): 2.09 µM
TGI (RPMI-8226 leukemia): 5.32 µM
GI50 (SK-MEL-5 melanoma): 1.65 µM
TGI (SK-MEL-5 melanoma): 3.08 µM
GI50 (NCI-H226 lung): 1.72 µM
TGI (NCI-H226 lung): 6.48 µM
GI50 (A498 renal): 1.85 µM
TGI (A498 renal): 5.67 µM
GI50 (MDA-MB-231 breast): 2.08 µM
TGI (MDA-MB-231 breast): 5.21 µM
GI50 (U251 CNS): 1.51 µM
TGI (U251 CNS): 3.17 µM
GI50 (COLO 205 colon): 2.01 µM
TGI (COLO 205 colon): 4.52 µM
GI50 (SF-268 CNS): 2.06 µM
TGI (SF-268 CNS): 8.24 µM
GI50 (KM12 colon): 1.97 µM
TGI (KM12 colon): 4.1 µM
GI50 (BT-549 breast): 1.45 µM
TGI (BT-549 breast): 3.97 µM
GI50 (T-47D breast): 1.76 µM
TGI (T-47D breast): 4.61 µM
GI50 (OVCAR-5 ovarian): 2.02 µM
TGI (OVCAR-5 ovarian): 3.77 µM
GI50 (SF-295 CNS): 3.95 µM
TGI (SF-295 CNS): 14.3 µM
GI50 (SNB-75 CNS): 2.22 µM
TGI (SNB-75 CNS): 14.3 µM
GI50 (SN12C renal): 2.51 µM
TGI (SN12C renal): 7.16 µM
GI50 (SK-MEL-28 melanoma): 1.71 µM
TGI (SK-MEL-28 melanoma): 3.49 µM
GI50 (786-0 renal): 2.26 µM
TGI (786-0 renal): 6.04 µM
GI50 (UACC-62 melanoma): 1.48 µM
TGI (UACC-62 melanoma): 3.16 µM
GI50 (UO-31 renal): 1.5 µM
TGI (UO-31 renal): 3.3 µM
GI50 (SNB-19 CNS): 2.2 µM
TGI (SNB-19 CNS): 6.31 µM
GI50 (NCI-H460 lung): 1.94 µM
TGI (NCI-H460 lung): 4.31 µM
GI50 (EKVX NSCLC): 1.81 µM
TGI (EKVX NSCLC): 4.91 µM
GI50 (MOLT-4 leukemia): 0.712 µM
TGI (MOLT-4 leukemia): 4.66 µM
GI50 (SR leukemia): 1.22 µM
TGI (SR leukemia): 5.33 µM
GI50 (LOX IMVI melanoma): 0.829 µM
TGI (LOX IMVI melanoma): 2.81 µM

From PubChem BioAssay (NCI)
